# Assay results as given in BindingDB's records for doi:10.1021/jm0256169 (Eli Lilly, 2003).
# Columns and labels:
# [1] = target: cAMP-dependent protein kinase catalytic subunit alpha (Bos taurus, UniProt P00517); test: Kinase Inhibition Assay; settings: 25 °C
# Description: (§1) In vitro kinase assay using purified enzyme, was incubated at room temperature with substrate, and test compounds in the presence of ATP/[gamma-33P]ATP. 33P incorporation was measured with a Top Count (Packard). IC50 is the inhibitor concentration which inhibits 50% of kinase activity that catalyzes the transfer of the terminal phosphate from 33P labeled ATP to the substrate.
# [2] = target: Calcium/calmodulin-dependent protein kinase type II subunit alpha (Rattus norvegicus, UniProt P11275); test: Kinase Inhibition Assay; settings: 25 °C
# Description: as §1
# Chain of Calcium/calmodulin-dependent protein kinase type II subunit alpha (P11275 whole entry): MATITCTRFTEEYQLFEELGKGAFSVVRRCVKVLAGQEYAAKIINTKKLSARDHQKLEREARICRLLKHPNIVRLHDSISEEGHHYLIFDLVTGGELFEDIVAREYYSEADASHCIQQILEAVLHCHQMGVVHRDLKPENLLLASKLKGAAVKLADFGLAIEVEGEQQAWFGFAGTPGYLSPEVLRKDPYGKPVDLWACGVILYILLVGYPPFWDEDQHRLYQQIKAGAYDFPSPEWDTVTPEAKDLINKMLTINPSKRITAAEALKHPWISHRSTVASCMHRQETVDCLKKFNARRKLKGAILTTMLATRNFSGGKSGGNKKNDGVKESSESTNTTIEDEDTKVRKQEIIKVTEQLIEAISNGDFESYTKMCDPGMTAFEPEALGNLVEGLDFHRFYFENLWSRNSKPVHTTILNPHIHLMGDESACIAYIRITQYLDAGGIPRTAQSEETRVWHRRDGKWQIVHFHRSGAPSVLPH
Compound,IC50 [1] [nM],IC50 [2] [nM],EC50 [2] [nM]
"O=C1NC(=O)c2c1c1c3ccccc3[nH]c1c1[nH]c3c(Br)cccc3c21 [5-bromo-3,13,23-triazahexacyclo[14.7.0.0^{2,10}.0^{4,9}.0^{11,15}.0^{17,22}]tricosa-1(16),2(10),4(9),5,7,11(15),17(22),18,20-nonaene-12,14-dione]",> 20000,,
"O=C1NC(=O)c2c1c1c3ccccc3[nH]c1c1[nH]c3ccccc3c21 [6,7,12,13-Tetrahydro-5,7-dioxo-5H-indolo[2,3-a]pyrrolo[3,4-c]carbazole]",> 2000,,
"O=C1NC(=O)c2c1c1c3ccccc3[nH]c1c1[nH]c3cc(C(F)(F)F)ccc3c21 [6-(trifluoromethyl)-3,13,23-triazahexacyclo[14.7.0.0^{2,10}.0^{4,9}.0^{11,15}.0^{17,22}]tricosa-1(16),2(10),4(9),5,7,11(15),17(22),18,20-nonaene-12,14-dione]",> 2000,> 2000,
"O=C1NC(=O)c2c1c1c3ccccc3[nH]c1c1[nH]c3cc(Br)ccc3c21 [6-bromo-3,13,23-triazahexacyclo[14.7.0.0^{2,10}.0^{4,9}.0^{11,15}.0^{17,22}]tricosa-1(16),2(10),4(9),5,7,11(15),17(22),18,20-nonaene-12,14-dione]",> 20000,,70
"COc1ccc2c(c1)[nH]c1c3[nH]c4cc(Br)ccc4c3c3c(c21)C(=O)NC3=O [6-bromo-20-methoxy-3,13,23-triazahexacyclo[14.7.0.0^{2,10}.0^{4,9}.0^{11,15}.0^{17,22}]tricosa-1(16),2(10),4(9),5,7,11(15),17(22),18,20-nonaene-12,14-dione]",> 2000,> 2000,
"O=C1NC(=O)c2c1c1c3ccccc3[nH]c1c1[nH]c3cc(Cl)ccc3c21 [6-chloro-3,13,23-triazahexacyclo[14.7.0.0^{2,10}.0^{4,9}.0^{11,15}.0^{17,22}]tricosa-1(16),2(10),4(9),5,7,11(15),17(22),18,20-nonaene-12,14-dione]",> 2000,,
"O=C1NC(=O)c2c1c1c3ccccc3[nH]c1c1[nH]c3cc(F)ccc3c21 [6-fluoro-3,13,23-triazahexacyclo[14.7.0.0^{2,10}.0^{4,9}.0^{11,15}.0^{17,22}]tricosa-1(16),2(10),4(9),5,7,11(15),17(22),18,20-nonaene-12,14-dione]",> 2000,,40
"COc1ccc2c(c1)[nH]c1c3[nH]c4ccccc4c3c3c(c21)C(=O)NC3=O [6-methoxy-3,13,23-triazahexacyclo[14.7.0.0^{2,10}.0^{4,9}.0^{11,15}.0^{17,22}]tricosa-1(16),2(10),4(9),5,7,11(15),17(22),18,20-nonaene-12,14-dione]",> 2000,,
"Cc1ccc2c(c1)[nH]c1c3[nH]c4ccccc4c3c3c(c21)C(=O)NC3=O [6-methyl-3,13,23-triazahexacyclo[14.7.0.0^{2,10}.0^{4,9}.0^{11,15}.0^{17,22}]tricosa-1(16),2(10),4(9),5,7,11(15),17(22),18,20-nonaene-12,14-dione]",> 2000,,
"O=C1NC(=O)c2c1c1c3ccccc3[nH]c1c1[nH]c3ccc(Br)cc3c21 [7-bromo-3,13,23-triazahexacyclo[14.7.0.0^{2,10}.0^{4,9}.0^{11,15}.0^{17,22}]tricosa-1(16),2(10),4(9),5,7,11(15),17(22),18,20-nonaene-12,14-dione]",> 20000,< 1250,70
Cn1c2ccccc2c2c3c(c4c5ccc(Br)cc5[nH]c4c21)C(=O)NC3=O [indolocarbazole deriv. 4(f)],> 2000,,80
Cn1c2ccccc2c2c3c(c4c5ccc(F)cc5[nH]c4c21)C(=O)NC3=O [indolocarbazole deriv. 4(h)],> 2000,> 2000,
